In PubChem BioAssay (NCI):
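Step 1: Grow cells in 96-well plates. Step 2: Expose to compound for 48 hours at 5 concentrations. Step 3: Interpolate endpoints linearly; if unreached, use highest concentration. Abbreviation: GI50, concentration required for 50% inhibition of growth. TGI marks complete inhibition of growth.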

What was measured:
Experiment in all cases: NCI tumour cell line growth inhibition, 48 h
786-0 renal = test system: 786-0 renal
A498 renal = test system: A498 renal
A549 NSCLC = test system: A549 NSCLC
ACHN renal = test system: ACHN renal
BT-549 breast = test system: BT-549 breast
CAKI-1 renal = test system: CAKI-1 renal
CCRF-CEM leukemia = test system: CCRF-CEM leukemia
COLO 205 colon = test system: COLO 205 colon
DU-145 prostate = test system: DU-145 prostate
EKVX NSCLC = test system: EKVX NSCLC
HCC-2998 colon = test system: HCC-2998 colon
HCT-116 colon = test system: HCT-116 colon
HCT-15 colon = test system: HCT-15 colon
HL-60(TB) leukemia = test system: HL-60(TB) leukemia
HOP-62 NSCLC = test system: HOP-62 NSCLC
HOP-92 NSCLC = test system: HOP-92 NSCLC
HS 578T breast = test system: HS 578T breast
HT29 colon = test system: HT29 colon
IGROV1 ovarian = test system: IGROV1 ovarian
K-562 leukemia = test system: K-562 leukemia
KM12 colon = test system: KM12 colon
LOX IMVI melanoma = test system: LOX IMVI melanoma
M14 melanoma = test system: M14 melanoma
MALME-3M melanoma = test system: MALME-3M melanoma
MCF7 breast = test system: MCF7 breast
MDA-MB-231 breast = test system: MDA-MB-231 breast
MDA-MB-435 = test system: MDA-MB-435
MOLT-4 leukemia = test system: MOLT-4 leukemia
NCI-H226 lung = test system: NCI-H226 lung
NCI-H23 lung = test system: NCI-H23 lung
NCI-H460 lung = test system: NCI-H460 lung
NCI-H522 lung = test system: NCI-H522 lung
NCI/ADR-RES ovarian = test system: NCI/ADR-RES ovarian
OVCAR-3 ovarian = test system: OVCAR-3 ovarian
OVCAR-4 ovarian = test system: OVCAR-4 ovarian
OVCAR-5 ovarian = test system: OVCAR-5 ovarian
OVCAR-8 ovarian = test system: OVCAR-8 ovarian
PC-3 prostate = test system: PC-3 prostate
RPMI-8226 leukemia = test system: RPMI-8226 leukemia
RXF 393 renal = test system: RXF 393 renal
SF-268 CNS = test system: SF-268 CNS
SF-295 CNS = test system: SF-295 CNS
SF-539 CNS = test system: SF-539 CNS
SK-MEL-2 melanoma = test system: SK-MEL-2 melanoma
SK-MEL-5 melanoma = test system: SK-MEL-5 melanoma
SK-OV-3 ovarian = test system: SK-OV-3 ovarian
SN12C renal = test system: SN12C renal
SNB-19 CNS = test system: SNB-19 CNS
SNB-75 CNS = test system: SNB-75 CNS
SR leukemia = test system: SR leukemia
SW-620 colon = test system: SW-620 colon
T-47D breast = test system: T-47D breast
TK-10 renal = test system: TK-10 renal
U251 CNS = test system: U251 CNS
UACC-257 melanoma = test system: UACC-257 melanoma
UACC-62 melanoma = test system: UACC-62 melanoma
UO-31 renal = test system: UO-31 renal

`CCN(CCCNC(=O)Cc1cc(=O)oc2cc(N(C)C)ccc12)CCNc1ccnc2cc(Cl)ccc12` was tested, and the GI50 (786-0 renal) was 16 µM, the TGI (786-0 renal) was 36.8 µM and the GI50 (A498 renal) was 12.4 µM. The TGI (A498 renal) was greater than 100 µM, the GI50 (A549 NSCLC) was 11.3 µM and the TGI (A549 NSCLC) was 28.6 µM. The GI50 (ACHN renal) was 9.21 µM, the TGI (ACHN renal) was 24.3 µM and the GI50 (BT-549 breast) was 14.4 µM. The TGI (BT-549 breast) was 34.6 µM, the GI50 (CAKI-1 renal) was 15.6 µM and the TGI (CAKI-1 renal) was 39.5 µM. It also gave a GI50 (CCRF-CEM leukemia) of 4.38 µM, a TGI (CCRF-CEM leukemia) of 34 µM and a GI50 (COLO 205 colon) of 6.54 µM. It also gave a TGI (COLO 205 colon) of 20.8 µM, a GI50 (DU-145 prostate) of 18.4 µM and a TGI (DU-145 prostate) of 47.7 µM. The GI50 (EKVX NSCLC) was 22.2 µM, the TGI (EKVX NSCLC) was 70 µM and the GI50 (HCC-2998 colon) was 7.87 µM. It also gave a TGI (HCC-2998 colon) of 21.3 µM, a GI50 (HCT-116 colon) of 4.86 µM and a TGI (HCT-116 colon) of 17 µM. For the same compound, the GI50 (HCT-15 colon) was 10.4 µM, the TGI (HCT-15 colon) was 29.5 µM and the GI50 (HL-60(TB) leukemia) was 16.3 µM. It also gave a TGI (HL-60(TB) leukemia) of 44.2 µM, a GI50 (HOP-62 NSCLC) of 13.2 µM and a TGI (HOP-62 NSCLC) of 32.5 µM. The GI50 (HOP-92 NSCLC) was 1.48 µM, the TGI (HOP-92 NSCLC) was 13.8 µM and the GI50 (HS 578T breast) was 13.3 µM. The TGI (HS 578T breast) was 32.1 µM, the GI50 (HT29 colon) was 3.39 µM and the TGI (HT29 colon) was 12.1 µM. For the same compound, the GI50 (IGROV1 ovarian) was 13.1 µM, the TGI (IGROV1 ovarian) was 35.1 µM and the GI50 (K-562 leukemia) was 2.78 µM. It also gave a TGI (K-562 leukemia) of 7.56 µM, a GI50 (KM12 colon) of 12.5 µM and a TGI (KM12 colon) of 28.1 µM. It also gave a GI50 (LOX IMVI melanoma) of 2 µM, a TGI (LOX IMVI melanoma) of 5.01 µM and a GI50 (M14 melanoma) of 2.08 µM. The TGI (M14 melanoma) was 3.85 µM, the GI50 (MALME-3M melanoma) was 1.83 µM and the TGI (MALME-3M melanoma) was 3.86 µM. It also gave a GI50 (MCF7 breast) of 7.42 µM, a TGI (MCF7 breast) of 22.7 µM and a GI50 (MDA-MB-231 breast) of 3.47 µM. The TGI (MDA-MB-231 breast) was 16.9 µM, the GI50 (MDA-MB-435) was 2.29 µM and the TGI (MDA-MB-435) was 5.78 µM. For the same compound, the GI50 (MOLT-4 leukemia) was 8.13 µM, the TGI (MOLT-4 leukemia) was 28 µM and the GI50 (NCI-H226 lung) was 10.9 µM. The TGI (NCI-H226 lung) was 34.4 µM, the GI50 (NCI-H23 lung) was 14 µM and the TGI (NCI-H23 lung) was 34.3 µM. For the same compound, the GI50 (NCI-H460 lung) was 9.54 µM, the TGI (NCI-H460 lung) was 22.3 µM and the GI50 (NCI-H522 lung) was 4.4 µM. For the same compound, the TGI (NCI-H522 lung) was 16.2 µM, the GI50 (NCI/ADR-RES ovarian) was 30.7 µM and the TGI (NCI/ADR-RES ovarian) was greater than 100 µM. The GI50 (OVCAR-3 ovarian) was 14 µM, the TGI (OVCAR-3 ovarian) was 33.2 µM and the GI50 (OVCAR-4 ovarian) was 15 µM. It also gave a TGI (OVCAR-4 ovarian) of 41.4 µM, a GI50 (OVCAR-5 ovarian) of 16.5 µM and a TGI (OVCAR-5 ovarian) of 38.2 µM. It also gave a GI50 (OVCAR-8 ovarian) of 8.29 µM, a TGI (OVCAR-8 ovarian) of 61.7 µM and a GI50 (PC-3 prostate) of 13.8 µM. The TGI (PC-3 prostate) was 37.9 µM, the GI50 (RPMI-8226 leukemia) was 12.4 µM and the TGI (RPMI-8226 leukemia) was 38.8 µM. The GI50 (RXF 393 renal) was 1.72 µM, the TGI (RXF 393 renal) was 5.15 µM and the GI50 (SF-268 CNS) was 11.3 µM. For the same compound, the TGI (SF-268 CNS) was 30.5 µM, the GI50 (SF-295 CNS) was 12.4 µM and the TGI (SF-295 CNS) was 27.6 µM. It also gave a GI50 (SF-539 CNS) of 1.69 µM, a TGI (SF-539 CNS) of 3.42 µM and a GI50 (SK-MEL-2 melanoma) of 12.6 µM. The TGI (SK-MEL-2 melanoma) was 26.2 µM, the GI50 (SK-MEL-5 melanoma) was 1.55 µM and the TGI (SK-MEL-5 melanoma) was 2.93 µM. The GI50 (SK-OV-3 ovarian) was 23.9 µM, the TGI (SK-OV-3 ovarian) was 56.5 µM and the GI50 (SN12C renal) was 13.9 µM. The TGI (SN12C renal) was 36 µM, the GI50 (SNB-19 CNS) was 18.9 µM and the TGI (SNB-19 CNS) was 52.7 µM. For the same compound, the GI50 (SNB-75 CNS) was 6.44 µM, the TGI (SNB-75 CNS) was 25.6 µM and the GI50 (SR leukemia) was 2.6 µM. It also gave a TGI (SR leukemia) of 6.64 µM, a GI50 (SW-620 colon) of 5.84 µM and a TGI (SW-620 colon) of 19.4 µM. The GI50 (T-47D breast) was 12.5 µM, the TGI (T-47D breast) was 39.8 µM and the GI50 (TK-10 renal) was 6.46 µM. It also gave a TGI (TK-10 renal) of 20.3 µM, a GI50 (U251 CNS) of 3.4 µM and a TGI (U251 CNS) of 12.6 µM. For the same compound, the GI50 (UACC-257 melanoma) was 1.79 µM, the TGI (UACC-257 melanoma) was 3.65 µM and the GI50 (UACC-62 melanoma) was 3.36 µM. It also gave a TGI (UACC-62 melanoma) of 11.9 µM, a GI50 (UO-31 renal) of 15.5 µM and a TGI (UO-31 renal) of 40.6 µM.
